Source: patent US4812461A, “Imide derivatives and their use in the treatment psychosis” (Sumitomo Pharmaceuticals Company, Limited, priority 1986, dated 1989)
Where two headings read alike, the source gives them in different places.

Columns and labels:
[1] = Extrapyramidal activity: catalepsy inducing activity test; assay type: in vivo, dd strain male mice; settings: mouse, in vivo; oral; catalepsy checked 1 and 4 hours after administration; strained state over 30 seconds; mice
Experimental: (§1) A designated amount of the test compound was orally administered to dd strain male mice (bodyweight, 22 to 27 g), and 1 and 4 hours after the administration, catalepsy induction was checked according to the Wirth et al method. Thus, each of the animals was forced to hang its forepaws onto a metal pole of 2.5 mm in diameter horizontally situated at a height of 5 cm to keep in a strained state. The test was made with three repetitions, and the presence of at least one case in which the animal was kept in the strained state over a period of 30 seconds was deemed to have caused catalepsy.

[2] = test system: climbing behavior induced by apomorphine; experiment: Anti-climbing behavior test (suppression of climbing behavior induced by apomorphine in mice); assay type: in vivo, dd strain male mice; settings: for ED50: Mus musculus
Source text: This activity was examined through the anti-climbing behavior test, i.e. the test for suppressing the climbing behavior induced by apomorphine in mice. A designated amount of the test compound was orally administered to several groups of dd strain male mice (bodyweight, 20 to 25 g; one group, 5 mice), and each of the animals was charged in an individual column cage of 12 cm in diameter and 14 cm in height having metal poles (each pole, 2 mm in diameter) vertically installed and arranged along the periphery with intervals of 1 cm. […]
0 All the paws were on the floor
1 Only forepaws seized the pole of the cage
2 All the paws seized the pole of the cage;
climbing behavior observed discontinu-
3 Continuous climbing behavior observed

[3] = cited from earlier work; for side effects on clinical use, in words: conventional neuroleptics
catalepsy induction = experiment: Extrapyramidal activity: catalepsy inducing activity test; assay type: in vivo, dd strain male mice; settings: oral
Experimental: as §1

[4] = sc, subcutaneous, apomorphine 1.0 mg/kg s.c., mice, read-out: ED50, Subcutaneous administration (anti-climbing, neuroleptic activity)
[5] = oral, after 1 hour, apomorphine 1.0 mg/kg s.c., mice, read-out: ED50, Oral administration After 1 hour (anti-climbing, neuroleptic activity)
[6] = oral, after 4 hours, apomorphine 1.0 mg/kg s.c., mice, read-out: ED50, Oral administration After 4 hours (anti-climbing, neuroleptic activity)

| SMILES | ED50 [1] | ED50 [2, 4] | ED50 [2, 5] | ED50 [2, 6] | side effects on clinical use, in words [3] | also measured |
| --- | --- | --- | --- | --- | --- | --- |
| O=C(c1ccc(F)cc1)C1CCN(CCCCN2C(=O)[C@@H]3[C@H]4CC[C@H](C4)[C@@H]3C2=O)CC1 [Compound No. 1, N-[4-{4-(4-Fluorobenzoyl)piperidinyl}butyl]bicyclo[2.2.1]heptane-2,3-di-exo-carboximide] | 25 to 50 mg/kg | 0.12 mg/kg | 3.7 mg/kg | 21.8 mg/kg |  |  |
| O=C1[C@@H]2[C@H]3CC[C@H](C3)[C@@H]2C(=O)N1CCCCN1CCC(c2nsc3ccccc23)CC1 [Compound No. 2, N-[4-{4-(1,2-Benzisothiazol-3-yl)-1-piperidinyl}butyl]bicyclo[2.2.1]heptane-2,3-di-exo-carboximide] | 10 to 30 mg/kg |  | 3.5 mg/kg | 3.4 mg/kg |  |  |
| O=C(c1ccc(F)cc1)C1CCN(CCCCN2C(=O)[C@@H]3[C@H](C2=O)[C@H]2C=C[C@@H]3C2)CC1 [Compound No. 5, N-[4-{4-(4-Fluorobenzoyl)piperidinyl}butyl]bicyclo[2.2.1]hept-5-ene-2,3-di-exo-carboximide] | 25 mg/kg | < 1 mg/kg | 1.3 mg/kg | 2.2 mg/kg |  |  |
| O=C(CCCN1CCC(O)(c2ccc(Cl)cc2)CC1)c1ccc(F)cc1 [Haloperidol, 4-[4-(4-chlorophenyl)-4-hydroxy-1-piperidinyl]-1-(4-fluorophenyl)-1-butanone] | 3 mg/kg |  |  |  | serious side effects such as catalepsy and hypotension | extrapyramidal activity (catalepsy inducing activity), in words (catalepsy induction): considerably high level of extra-pyramidal activity; ED50 ([2]; po, 1 h, read-out: ED50, Oral administration After 1 hour (anti-climbing, neuroleptic activity)): 0.67 mg/kg; ED50 ([2]; po, 4 h, read-out: ED50, Oral administration After 4 hours (anti-climbing, neuroleptic activity)): 0.44 mg/kg; ED50 ([2]; sc, read-out: ED50, Subcutaneous administration (anti-climbing, neuroleptic activity)): 0.21 mg/kg; neuroleptic activity (anti-climbing activity), in words ([2]; route not stated): significant neuroleptic activity |
| O=C1CC2(CCCC2)CC(=O)N1CCCCN1CCN(c2nsc3ccccc23)CC1 [Tiaspiron, 8-[4-(3-benzisothiazolyl)-1-piperazinylbutyl]-8-azaspiro[4,5]decane-7,9-dione] |  | 0.23 mg/kg | 9.4 mg/kg | 61.5 mg/kg |  | extrapyramidal side effects such as catalepsy inducing activity, in words ([3]; in comparison with butyrophenone compounds such as haloperidol): alleviated in extrapyramidal side effects such as catalepsy inducing activity |
| CN(C)CCCN1c2ccccc2Sc2ccc(Cl)cc21 [chlorpromazine, 2-chloro-10-(3-dimethylaminopropyl)phenothiazine] |  |  |  |  | serious side effects such as catalepsy and hypotension |  |
